Data set [1] can be described thus: Cytotoxicity against human HCT8 cells after 96 hrs by MTT assay. In kind it is functional, cell-based. The settings on record: HCT-8, 96 h. For orientation: Tetrazolium assays rely on reduction of a dye to a coloured formazan, in cell work by metabolically active cells.
The subject of data set [2] is A2780. Briefly: Cytotoxicity against human A2780 cells after 96 hrs by MTT assay. In kind it is functional, cell-based. The settings on record: A2780, 96 h.
Data set [3] in a line: Antiinflammatory activity in mouse BV2 cells assessed as inhibition of LPS-induced nitric oxide production after 24 hrs by Griess method. Particulars: BV-2, 24 h. In kind it is functional, cell-based. In general terms: The Griess reaction detects nitrite, a stable product of nitric oxide.
Data set [4] is described as follows: Cytotoxicity against human BGC823 cells after 96 hrs by MTT assay. The settings on record: BGC-823, 96 h. The data set is classed as functional, cell-based.
A short description of data set [5]: Cytotoxicity against human Bel7402 cells after 96 hrs by MTT assay. In kind it is functional, cell-based. Particulars: Bel-7402, 96 h.
Data set [6] has as its system A549. Briefly: Cytotoxicity against human A549 cells after 96 hrs by MTT assay. The data set is classed as functional, cell-based. The settings on record: A549, 96 h.
Data set [7] in a line: Cytotoxicity against mouse BV2 cells assessed as cell viability by MTT assay relative to LPS-treated control. The data set is classed as cell-based, BV-2. More on the design: concentration or dose not given beside the values. Particulars: read-out: Activity.

Molecules are shown by their SMILES. pIC50: −log10 of the molar value. Some results are limits rather than exact numbers.

As to `C[C@H](C(=O)O)[C@@H]1CC[C@]2(C)CC[C@]3(C)[C@H](CC[C@@H]4[C@@]5(C)CCC(=O)C(C)(C)[C@@H]5CC[C@]43C)[C@@H]12`, the pIC50 in data set [1], in data set [2], in data set [3], in data set [4], in data set [5] and in data set [6] was below 5.00 throughout.
As to `CC(=O)[C@@H]1CC[C@]2(CO)CC[C@]3(C)[C@H](CC[C@@H]4[C@@]5(C)CC[C@@H](O)C(C)(C)[C@@H]5CC[C@]43C)[C@@H]12` (relative stereo), the pIC50 in data set [1], in data set [2], in data set [3], in data set [4], in data set [5] and in data set [6] was below 5.00 in each case.
Turning to `C=C(CO)[C@@H]1CC[C@]2(C)CC[C@]3(C)[C@H](CC[C@@H]4[C@@]5(C)CC[C@@H](O)C(C)(C)[C@@H]5CC[C@]43C)[C@@H]12`, the pIC50 in data set [1], in data set [2], in data set [3], in data set [4], in data set [5] and in data set [6] was below 5.00 in each case.
On to `C=C(C)[C@@H]1CC[C@]2(C)CC[C@]3(C)[C@H](CC[C@@H]4[C@@]5(C)CC[C@H](O)C(C)(C)[C@@H]5CC[C@]43C)[C@@H]12` [LUPEOL], for which the pIC50 in data set [1], in data set [2], in data set [3], in data set [4], in data set [5] and in data set [6] was below 5.00 each time.
`COc1cc(/C=C/C(=O)CC(=O)/C=C/c2ccc(O)c(OC)c2)ccc1O` [CURCUMIN]: the viability in data set [7] turned out to be 93.3%. Besides, the negative-log IC50 (pIC50) (commonly the IC50 on a negative log10 scale, so that one unit is a factor of ten) in data set [3] is 6.28.
As for `C=C(CO)[C@@H]1CC[C@]2(CO)CC[C@]3(C)[C@H](CC[C@@H]4[C@@]5(C)CC[C@@H](OC(C)=O)C(C)(C)[C@@H]5CC[C@]43C)[C@@H]12`, the pIC50 in data set [1] is 5.49; in data set [2] it was below 5.00; in data set [3] it was below 5.00; in data set [4] it was 5.39; in data set [5], 5.56; in data set [6], 5.47.
With `CC(=O)OC[C@]12CC[C@@H](C(C)=O)[C@@H]1[C@H]1CC[C@@H]3[C@@]4(C)CC[C@@H](O)C(C)(C)[C@@H]4CC[C@@]3(C)[C@]1(C)CC2` (relative stereo), the pIC50 in data set [1], in data set [2], in data set [3], in data set [4], in data set [5] and in data set [6] was below 5.00 each time.
For `C=C(CO)[C@@H]1CC[C@]2(C)C[C@H](O)[C@]3(C)[C@H](CC[C@@H]4[C@@]5(C)CCC(=O)C(C)(C)[C@@H]5CC[C@]43C)[C@@H]12`, the pIC50 in data set [1], in data set [2], in data set [3], in data set [4], in data set [5] and in data set [6] was below 5.00 in each case.
With `C=C(CO)[C@@H]1CC[C@]2(C)CC[C@]3(C)[C@H](CC[C@@H]4[C@@]5(C)CCC(=O)C(C)(C)[C@@H]5C[C@H](O)[C@]43C)[C@@H]12`, the pIC50 in data set [1], in data set [2], in data set [3], in data set [4], in data set [5] and in data set [6] was below 5.00 in each case.
For `C=C(C)[C@@H]1CC[C@]2(C)CC[C@]3(C)[C@H](CC[C@@H]4[C@@]5(C)CC[C@@H](O)C(C)(C)[C@@H]5CC[C@]43C)[C@@H]12`, the pIC50 in data set [1], in data set [2], in data set [3], in data set [4], in data set [5] and in data set [6] was below 5.00 each time.
Regarding `CC(=O)O[C@H]1C(=O)[C@@]2(C)[C@H]([C@H](OC(=O)c3ccccc3)[C@]3(O)C[C@H](OC(=O)[C@H](O)[C@@H](NC(=O)c4ccccc4)c4ccccc4)C(C)=C1C3(C)C)[C@]1(OC(C)=O)CO[C@@H]1C[C@@H]2O` [PACLITAXEL], the pIC50 in data set [2] was 6.23; in data set [4], 7.59; in data set [5], 7.96; in data set [6] it was 7.49.
Turning to `C[C@@H](CO)[C@@H]1CC[C@]2(C)CC[C@]3(C)[C@H](CC[C@@H]4[C@@]5(C)CCC(=O)C(C)(C)[C@@H]5C[C@H](O)[C@]43C)[C@@H]12`, the pIC50 in data set [1], in data set [2], in data set [3], in data set [4], in data set [5] and in data set [6] was below 5.00 throughout.
For `C=C(CO)[C@@H]1CC[C@]2(C)CC[C@]3(C)[C@H](CC[C@@H]4[C@@]5(C)CC[C@H](O)C(C)(C)[C@@H]5CC[C@]43C)[C@@H]12`, the pIC50 in data set [1], in data set [2], in data set [3], in data set [4], in data set [5] and in data set [6] was below 5.00 each time.
Regarding `C=C(C)[C@@H]1CC[C@]2(CO)CC[C@]3(C)[C@H](CC[C@@H]4[C@@]5(C)CC[C@@H](O)C(C)(C)[C@@H]5CC[C@]43C)[C@@H]12` [3-EPI-BETULIN], the pIC50 in data set [1] was below 5.00; in data set [2], below 5.00; in data set [3], 5.60; in data set [4], below 5.00; in data set [5], below 5.00; in data set [6] it was below 5.00. For the same compound, in data set [7], the viability turned out to be 89.3%.
On to `CC(=O)O[C@@H]1CC[C@]2(C)[C@H]3CC[C@@H]4[C@H]5[C@H]([C@H](C)C(=O)O)CC[C@]5(C)CC[C@@]4(C)[C@]3(C)CC[C@H]2C1(C)C`, for which the negative-log IC50 (pIC50) in data set [1] is below 5.00; in data set [2] it was below 5.00; in data set [3], 5.13; in data set [4], below 5.00; in data set [5] it was below 5.00; in data set [6] it was below 5.00. For the same compound, the viability in data set [7] was 98.5%.
As to `C=C(C)[C@@H]1CC[C@]2(CO)CC[C@]3(C)[C@H](CC[C@@H]4[C@@]5(C)CC[C@H](O)C(C)(C)[C@@H]5CC[C@]43C)[C@@H]12` [BETULIN], the negative-log IC50 (pIC50) in data set [1], in data set [2], in data set [3], in data set [4], in data set [5] and in data set [6] was below 5.00 each time.
For `C[C@@H](O)[C@@H]1CC[C@]2(C)CC[C@]3(C)[C@H](CC[C@@H]4[C@@]5(C)CC[C@@H](O)C(C)(C)[C@@H]5CC[C@]43C)[C@@H]12`, the negative-log IC50 (pIC50) in data set [1] is below 5.00; in data set [2], below 5.00; in data set [3], 5.46; in data set [4], below 5.00; in data set [5] it was below 5.00; in data set [6], below 5.00. Further, in data set [7], the viability was found to be 94.2%.
`C=C(C=O)[C@@H]1CC[C@]2(C)CC[C@]3(C)[C@H](CC[C@@H]4[C@@]5(C)CC[C@@H](O)C(C)(C)[C@@H]5CC[C@]43C)[C@@H]12`: the negative logarithm of the IC50 (pIC50) in data set [1], in data set [2], in data set [3], in data set [4], in data set [5] and in data set [6] was below 5.00 each time.
With `C[C@@H](CO)[C@@H]1CC[C@]2(C)C[C@H](O)[C@]3(C)[C@H](CC[C@@H]4[C@@]5(C)CCC(=O)C(C)(C)[C@@H]5CC[C@]43C)[C@@H]12`, the pIC50 in data set [1], in data set [2], in data set [3], in data set [4], in data set [5] and in data set [6] was below 5.00 throughout.
As to `C=C(C)[C@@H]1CC[C@]2(CO)CC[C@]3(C)[C@H](CC[C@@H]4[C@@]5(C)CCC(=O)C(C)(C)[C@@H]5CC[C@]43C)[C@@H]12` [BETULONE], the pIC50 in data set [1], in data set [2], in data set [3], in data set [4], in data set [5] and in data set [6] was below 5.00 in each case.
With `CC(=O)O[C@@H]1CC[C@]2(C)[C@H]3CC[C@@H]4[C@H]5[C@H](C(C)=O)CC[C@]5(CO)CC[C@@]4(C)[C@]3(C)CC[C@H]2C1(C)C` (relative stereo), the pIC50 in data set [1], in data set [2], in data set [3], in data set [4], in data set [5] and in data set [6] was below 5.00 each time.
With `C=C(CO)[C@@H]1CC[C@]2(C)CC[C@]3(C)[C@H](CC[C@@H]4[C@@]5(C)CCC(=O)C(C)(C)[C@@H]5CC[C@]43C)[C@@H]12`, the pIC50 in data set [1], in data set [2], in data set [3], in data set [4], in data set [5] and in data set [6] was below 5.00 throughout.
Consider `CC(=O)C1=C2[C@H]3CC[C@@H]4[C@@]5(C)CC[C@@H](O)C(C)(C)[C@@H]5CC[C@@]4(C)[C@]3(C)CC[C@@]2(C)CC1=O`, for which the negative logarithm of the IC50 (pIC50) in data set [1], in data set [2], in data set [3], in data set [4], in data set [5] and in data set [6] was below 5.00 throughout.
For the compound `CC(=O)[C@@H]1CC[C@]2(C)CC[C@]3(C)[C@H](CC[C@@H]4[C@@]5(C)CC[C@@H](O)C(C)(C)[C@@H]5CC[C@]43C)[C@@H]12`, the negative-log IC50 (pIC50) in data set [1], in data set [2], in data set [3], in data set [4], in data set [5] and in data set [6] was below 5.00 throughout.
